Experimental data: patent US11707440B2 (priority 2017, dated 2023)
Read-outs that look alike come from different tables or passages of the source. Marks after values point to notes of the source that are not given here.

Experiments:
[1] = for Stock solution stability: stock solutions
Description: This example provides an LC-MS/MS method for the determination of ketamine and norketamine in sodium heparin human plasma using ketamine-d4 and norketamine-d4 as the respective internal standards (IS).

[2] = Pharmacokinetics of intranasal esketamine in healthy subjects (Example 9); conditions: for Metabolite/Parent Ratio AUClast / Metabolite/Parent Ratio AUC∞ / Metabolite/Parent Ratio tmax / AUClast / AUC∞ / Cmax / t1/2: mean; for tmax: median
Description: Pharmacokinetic blood samples for measurement of esketamine and noresketamine concentrations in plasma were collected from predose until up to 24 hours after each intranasal esketamine regimen on Day 1 of each period.
Blood samples (4 mL each) for determination of esketamine and noresketamine plasma concentrations were collected into the appropriate collection tube (e.g., Vacutainer®) at timepoints 0.00, 0.12, 0.20, 0.37, 0.53, 0.67, 0.83, 1.00, 1.25, 1.50, 2.00, 3.00, 4.00, 6.00, 9.00, 12.00, 18.00, and 24.00 h. The total amount of blood to be drawn for clinical laboratory tests and PK evaluations is approximately 327 mL.
Plasma samples were analyzed for esketamine and noresketamine concentrations using the validated, specific and sensitive liquid chromatography coupled to tandem mass spectrometry (LC-MS/MS) achiral method of Example 8.
Serial PK blood samples (4 mL each) were collected for a 24-hour period from each subject (Periods 1, 2, and 3). […] Statistical Methods 1.6.4.1. Sample Size
The following key parameters of esketamine and noresketamine in plasma were calculated using noncompartmental methods and actual sampling times: Cmax, tmax, AUClast, AUC∞, t1/2,λ, and λz.

MDD/TRD subjects = conditions: 52-week safety study in MDD/TRD subjects (Berman et al., 2011); cited from earlier work
[3] = after A: Esketamine 28 mg intranasal
[4] = after B: Esketamine 56 mg intranasal
[5] = after C: Esketamine 84 mg intranasal
[6] = healthy subjects, 28, 56 and 84 mg
[7] = metabolite after A: Esketamine 28 mg intranasal
[8] = metabolite after B: Esketamine 56 mg intranasal
[9] = metabolite after C: Esketamine 84 mg intranasal

CN[C@]1(c2ccccc2Cl)CCCCC1=O [5-Ketamine]
QC sample long-term storage stability ([1]; human plasma, −20° C.): 707 days at −20 °C

NC1(c2ccccc2Cl)CCCCC1=O (stereo not drawn) [Norketamine]
QC sample freeze/thaw stability ([1]; freeze (−20° C.)/thaw (ice-water bath)): 3 freeze (−20° C.)/thaw (ice-water bath) cycles
QC sample freeze/thaw stability ([1]; freeze (−20° C.)/thaw (room temperature)): 3 freeze (−20° C.)/thaw (room temperature) cycles
QC sample bench-top stability ([1]; human plasma, room temperature): 68.5 hours at room temp
QC sample long-term storage stability ([1]; human plasma, −20° C.): 1552 days at −20 °C
Processed sample stability ([1]; room temperature): 146.5 hours at room temperature
Whole Blood Stability ([1]; room temperature and ice-water bath (0-4° C.)): 120 minutes at room temperature and in an ice-water bath
Stock solution stability (spike solutions) ([1]; spike solutions, −20° C.): 610 days at −20 °C for ketamine/norketamine spike solutions
Stock solution stability ([1]; room temperature under white light): 6 h
Stock solution stability ([1]; −20° C.): 15100 h

N[C@]1(c2ccccc2Cl)CCCCC1=O [noresketamine]
Metabolite/Parent Ratio AUClast [2, 3]: 3.62
Metabolite/Parent Ratio AUC∞ [2, 3]: 3.80^b
Metabolite/Parent Ratio tmax [2, 3]: 1.96 h
Metabolite/Parent Ratio AUClast [2, 4]: 4.07
Metabolite/Parent Ratio AUC∞ [2, 4]: 4.22^b
Metabolite/Parent Ratio tmax [2, 4]: 2.28 h
Metabolite/Parent Ratio AUClast [2, 5]: 4.32
Metabolite/Parent Ratio AUC∞ [2, 5]: 4.46^d
Metabolite/Parent Ratio tmax [2, 5]: 2.55 h
AUC (AUClast and AUC∞) variability, range [2, 6]: 17.0% to 21.3
AUClast, mean ratio of noresketamine to esketamine, range [2, 6]: 3.62 to 4.32
AUC∞, mean ratio of noresketamine to esketamine, range [2, 6]: 3.80 to 4.46
Cmax variability (percent coefficient of variation), range across treatment groups [2, 6]: 25.8% to 33.7
Cmax, mean ratio of noresketamine to esketamine, range [2, 6]: 1.96 to 2.55
Mean t1/2, range [2, 6]: 7.48 to 7.74 h
Median tmax, range across the 3 intranasal regimens ([2]; healthy subjects, 28, 56 and 84 mg intranasal esketamine): 1.25 to 1.5 h
AUClast [2, 7]: 454 ng·h/mL
AUC∞ [2, 7]: 508^ h * ng/mL
Cmax [2, 7]: 92.8 ng/mL
t1/2 [2, 7]: 7.74 h
tmax [2, 7]: 1.25 h
AUClast [2, 8]: 851 ng·h/mL
AUC∞ [2, 8]: 924^c h * ng/mL
Cmax [2, 8]: 154 ng/mL
t1/2 [2, 8]: 7.71^c h
tmax [2, 8]: 1.50 h
AUClast [2, 9]: 1287 ng·h/mL
AUC∞ [2, 9]: 1392^b h * ng/mL
Cmax [2, 9]: 241 ng/mL
t1/2 [2, 9]: 7.48^b h
tmax [2, 9]: 1.50 h

OCCOCCN1CCN(C2=Nc3ccccc3Sc3ccccc32)CC1 [quetiapine]
Discontinuation rate due to adverse events (MDD/TRD subjects): 23.7%
